Measurements reported in publication PMC10674894 (Viruses, 2023).

Key:
[1] = system: Vero cells; experiment: Cytotoxicity MTT assay in Vero cells (MNTD, CC50); assay type: cell-based, African green monkey; conditions: Table S1; Vero cells
[2] = system: CHIKV DRDE-07; experiment: In vitro screening against CHIKV (CPE inhibition and MTT cell viability); assay type: cell-based, chikungunya virus; conditions: Table S1, CHIKV-infected Vero cells; for % Cell viability: 72 hpi, MTT assay; for CPE: arbitrary score of cytopathic effect at >48 hpi

SMILES | MNTD [1] [µM] | % Cell viability [2] [%] | CPE [2]
CC1=C(C(=O)OCCN(C)C)C(c2ccc(Cl)cc2)NC(=O)N1 (stereo not drawn) [DCR108, 2-(dimethylamino)ethyl 4-(4-chlorophenyl)-6-methyl-2-oxo-1,2,3,4-tetrahydropyrimidine-5-carboxylate] | 62.5 | 13.99 | ++++ (>60% (++++))
CC1=C(C(=O)OCCN(C)C)C(c2ccc(N(C)C)cc2)NC(=O)N1 (stereo not drawn) [DCR109, 2‐(dimethylamino)ethyl 4‐[4‐(dimethylamino)phenyl]‐6‐methyl‐2‐oxo‐1,2,3,4‐tetrahydropyrimidine‐5‐carboxylate] | 62.5 | 15.11 | ++++ (>60% (++++))
CC1=C(C(=O)OCCN(C)C)C(c2ccc(O)cc2)NC(=O)N1 (stereo not drawn) [DCR110, 2-(dimethylamino)ethyl 4-(4-hydroxyphenyl)-6-methyl-2-oxo-1,2,3,4-tetrahydropyrimidine-5-carboxylate] | 62.5 | 12.01 | ++++ (>60% (++++))
CC1=C(C(=O)OCCN(C)C)C(c2ccc(N(C)C)cc2)NC(=S)N1 (stereo not drawn) [DCR111, 2‐(dimethylamino)ethyl 4‐[4‐(dimethylamino)phenyl]‐6‐methyl‐2‐sulfanylidene‐1,2,3,4‐tetrahydropyrimidine‐5‐carboxylate] | 62.5 | 10.08 | ++++ (>60% (++++))
COc1ccc(C2NC(=O)NC(C)=C2C(=O)OCCN(C)C)cc1 (stereo not drawn) [DCR112, 2-(dimethylamino)ethyl 4-(4-methoxyphenyl)-6-methyl-2-oxo-1,2,3,4-tetrahydropyrimidine-5-carboxylate] | 62.5 | 2.09 | ++++ (>60% (++++))
COc1ccc(C2c3c(ccc4ccccc34)Oc3ccc4ccccc4c32)cc1 [DCR113, 2‐(4‐methoxyphenyl)‐13‐oxapentacyclo[12.8.0.0³,¹².0⁴,⁹.0¹⁷,²²]docosa‐1(14),3,5,7,9,11,15,17(22),18,20‐decaene] | 31.25 | 5.04 | ++++ (>60% (++++))
CCOc1ccc(C2c3c(ccc4ccccc34)Oc3ccc4ccccc4c32)cc1 [DCR114, 2‐(4‐ethoxyphenyl)‐13‐oxapentacyclo[12.8.0.0³,¹².0⁴,⁹.0¹⁷,²²]docosa‐1(14),3,5,7,9,11,15,17(22),18,20‐decaene] | 31.25 | 4.05 | ++++ (>60% (++++))
Clc1ccc(C2c3c(ccc4ccccc34)Oc3ccc4ccccc4c32)cc1 [DCR115, 2‐(4‐chlorophenyl)‐13‐oxapentacyclo[12.8.0.0³,¹².0⁴,⁹.0¹⁷,²²]docosa‐1(14),3,5,7,9,11,15,17(22),18,20‐decaene] | 125 | 17.1 | ++++ (>60% (++++))
Clc1cccc(C2c3c(ccc4ccccc34)Oc3ccc4ccccc4c32)c1 [DCR116, 2‐(3‐chlorophenyl)‐13‐oxapentacyclo[12.8.0.0³,¹².0⁴,⁹.0¹⁷,²²]docosa‐1(14),3,5,7,9,11,15,17(22),18,20‐decaene] | 31.25 | 10.84 | ++++ (>60% (++++))
Fc1ccc(C2c3c(ccc4ccccc34)Oc3ccc4ccccc4c32)cc1 [DCR117, 2‐(4‐fluorophenyl)‐13‐oxapentacyclo[12.8.0.0³,¹².0⁴,⁹.0¹⁷,²²]docosa‐1(14),3,5,7,9,11,15,17(22),18,20‐decaene] | 125 | 14.01 | ++++ (>60% (++++))
CCc1ccc(C2c3c(ccc4ccccc34)Oc3ccc4ccccc4c32)cc1 [DCR118, 2‐(4‐ethylphenyl)‐13‐oxapentacyclo[12.8.0.0³,¹².0⁴,⁹.0¹⁷,²²]docosa‐1(14),3,5,7,9,11,15,17(22),18,20‐decaene] | 31.25 | 14.23 | ++++ (>60% (++++))
Fc1cccc(C2c3c(ccc4ccccc34)Oc3ccc4ccccc4c32)c1 [DCR119, 2‐(3‐fluorophenyl)‐13‐oxapentacyclo[12.8.0.0³,¹².0⁴,⁹.0¹⁷,²²]docosa‐1(14),3,5,7,9,11,15,17(22),18,20‐decaene] | 31.25 | 18.74 | ++++ (>60% (++++))
CC(C)C1c2c(ccc3ccccc23)Oc2ccc3ccccc3c21 [DCR120, 2‐(propan‐2‐yl)‐13‐oxapentacyclo[12.8.0.0³,¹².0⁴,⁹.0¹⁷,²²]docosa‐1(14),3,5,7,9,11,15,17(22),18,20‐decaene] | 31.25 | 19.24 | ++++ (>60% (++++))
c1cncc(C2c3c(ccc4ccccc34)Oc3ccc4ccccc4c32)c1 [DCR121, 3‐{13‐oxapentacyclo[12.8.0.0³,¹².0⁴,⁹.0¹⁷,²²]docosa‐1(14),3,5,7,9,11,15,17(22),18,20‐decaen‐2‐yl}pyridine] | 31.25 | 8.03 | ++++ (>60% (++++))
CC1(C)CC(=O)C2=C(C1)OC1=C(C(=O)CC(C)(C)C1)C2c1ccc(Cl)cc1 [DCR122, 9‐(4‐chlorophenyl)‐3,3,6,6‐tetramethyl‐2,3,4,5,6,7,8,9‐octahydro‐1H‐xanthene‐1,8‐dione] | 31.25 | 11.09 | ++++ (>60% (++++))
CC1(C)CC(=O)C2=C(C1)OC1=C(C(=O)CC(C)(C)C1)C2c1cccc(O)c1 [DCR123, 9‐(3‐hydroxyphenyl)‐3,3,6,6‐tetramethyl‐2,3,4,5,6,7,8,9‐octahydro‐1H‐xanthene‐1,8‐dione] | 125 | 12.01 | ++++ (>60% (++++))

SMILES | MNTD [1] [µM] | % Cell viability [2] [%] | CPE [2]
CC1(C)CC(=O)C2=C(C1)OC1=C(C(=O)CC(C)(C)C1)C2c1ccccc1Cl [DCR124, 9‐(2‐chlorophenyl)‐3,3,6,6‐tetramethyl‐2,3,4,5,6,7,8,9‐octahydro‐1H‐xanthene‐1,8‐dione] | 125 | 11.05 | ++++ (>60% (++++))
COc1cccc(C2C3=C(CC(C)(C)CC3=O)OC3=C2C(=O)CC(C)(C)C3)c1 [DCR125, 9‐(3‐methoxyphenyl)‐3,3,6,6‐tetramethyl‐2,3,4,5,6,7,8,9‐octahydro‐1H‐xanthene‐1,8‐dione] | 125 | 11.19 | ++++ (>60% (++++))
CC1(C)CC(=O)C2=C(C1)OC1=C(C(=O)CC(C)(C)C1)C2c1ccc([N+](=O)[O-])cc1 [DCR126, 3,3,6,6‐tetramethyl‐9‐(4‐nitrophenyl)‐2,3,4,5,6,7,8,9‐octahydro‐1H‐xanthene‐1,8‐dione] | 15.6 | 17.99 | ++++ (>60% (++++))
Cc1ccc(C2C3=C(CC(C)(C)CC3=O)OC3=C2C(=O)CC(C)(C)C3)cc1 [DCR127, 3,3,6,6‐tetramethyl‐9‐(4‐methylphenyl)‐2,3,4,5,6,7,8,9‐octahydro‐1H‐xanthene‐1,8‐dione] | 125 | 10.21 | ++++ (>60% (++++))
COc1ccc(C2C3=C(CC(C)(C)CC3=O)OC3=C2C(=O)CC(C)(C)C3)cc1 [DCR128, 9‐(4‐methoxyphenyl)‐3,3,6,6‐tetramethyl‐2,3,4,5,6,7,8,9‐octahydro‐1H‐xanthene‐1,8‐dione] | 125 | 11.01 | ++++ (>60% (++++))
CC1(C)CC(=O)C2=C(C1)OC1=C(C(=O)CC(C)(C)C1)C2c1cccc([N+](=O)[O-])c1 [DCR129, 3,3,6,6‐tetramethyl‐9‐(3‐nitrophenyl)‐2,3,4,5,6,7,8,9‐octahydro‐1H‐xanthene‐1,8‐dione] | 31.25 | 16.85 | ++++ (>60% (++++))
CCOc1cc(C2C3=C(CC(C)(C)CC3=O)OC3=C2C(=O)CC(C)(C)C3)ccc1O [DCR130, 9‐(3‐ethoxy‐4‐hydroxyphenyl)‐3,3,6,6‐tetramethyl‐2,3,4,5,6,7,8,9‐octahydro‐1H‐xanthene‐1,8‐dione] | 15.6 | 17.21 | ++++ (>60% (++++))
COc1cc(Br)cc(C2C3=C(CC(C)(C)CC3=O)OC3=C2C(=O)CC(C)(C)C3)c1 [DCR131, 9‐(3‐bromo‐5‐methoxyphenyl)‐3,3,6,6‐tetramethyl‐2,3,4,5,6,7,8,9‐octahydro‐1H‐xanthene‐1,8‐dione] | 125 | 8.01 | ++++ (>60% (++++))
CC1(C)CC(=O)C2=C(C1)OC1=C(C(=O)CC(C)(C)C1)C2c1ccccn1 [DCR132, 3,3,6,6‐tetramethyl‐9‐(pyridin‐2‐yl)‐2,3,4,5,6,7,8,9‐octahydro‐1H‐xanthene‐1,8‐dione] | 125 | 9.06 | ++++ (>60% (++++))
CC1(C)CC(=O)C2=C(C1)OC1=C(C(=O)CC(C)(C)C1)C2c1ccc(C2C3=C(CC(C)(C)CC3=O)OC3=C2C(=O)CC(C)(C)C3)cc1 [DCR133, 3,3,6,6‐tetramethyl‐9‐[4‐(3,3,6,6‐tetramethyl‐1,8‐dioxo‐dodecahydro‐1H‐xanthen‐9‐yl)phenyl]‐2,3,4,5,6,7,8,9‐octahydro‐1H‐xanthene‐1,8‐dione] | 125 | 11.14 | ++++ (>60% (++++))
N#Cc1ccccc1N1CCCCC1 [DCR140, 2-Piperidin-1-yl-benzonitrile] | 250 | 14.97 | ++++ (>60% (++++))
N#Cc1c(F)cccc1N1CCCCC1 [DCR141, 2-Fluoro-6-piperidin-1-yl-benzonitrile] | 125 | 19.24 | ++++ (>60% (++++))
CC1CN(c2ccccc2C#N)CC(C)N1 (stereo not drawn) [DCR142, 2-(3,5-Dimethyl-piperazin-1-yl)-benzonitrile] | 125 | 13.08 | ++++ (>60% (++++))
COc1cccc(N2CCCCC2)c1C#N [DCR143, 2-Methoxy-6-piperidin-1-yl-benzonitrile] | 125 | 17.42 | ++++ (>60% (++++))
O=[N+]([O-])c1ccc(N2CCCCC2)c([N+](=O)[O-])c1 [DCR144, 1-(2,4-Dinitro-phenyl)-piperidine] | 125 | 25.21 | ++++ (>60% (++++))
